Columns and labels:
1α (OH)-ase gene = assay: Northern blot of CYP1AD (1α(OH)-ase) gene expression in mice given excess 1α,25(OH)2D3; assay type: in vivo; conditions: 50 ng/mouse
Excerpt: The tissue distribution of CYP1AD transcripts in 7-week-old normal and VDR−/− mice was examined. Poly(A)^+ RNA was extracted from brain, lung, heart, liver, spleen, kidney, small intestine, skeletal muscle, skin, and bone, and analyzed by northern blot technique using cDNA of CYP1AD and β-actin as probes (K. Takeyama et al., Biochem. Biophys. Res. Commun. 222, 395 (1996); H. Mano et al., J. Biol. Chem. 269, 1591 (1994)). As the result, the transcript of CYP1AD was detected as a single band in the kidney. The size of the transcript (2.4 kbp) is identical to that of cloned cDNA (FIG. 10). Except for kidney, in, 1α (OH)-ase activity has been reported in other tissues than kidney (A. W. Norman, J. Roth, L. Orchi, Endocr. Rev. 3, 331 (1982); H. F. DeLuca, Adv. Exp. Med. Biol. 196, 361 (1986); M. R. Walters, Endocr. Rev 13, 719 (1992); G. A. Howard, R. T. Turner, D. J. Sherrard, D. J. Baylink, J. Biol. Chem. 256, 7738 (1981); T. K. Gray, G. E. Lester, R. S. Lorenc, Science 204, 1311 (1979)). However, the transcript of 1α (OH)-ase was not detected in tissues other than kidney in this experiment.
The relative amount of the hydroxylase gene standardized with the β-actin gene transcripts was measured in at least 5 mice for each group (FIG. 12).

GAL4-VDR(DEF) = assay: CAT reporter assay in COS-1 cells co-transformed with GAL4-VDR(DEF) and 17M2-G-CAT; assay type: cell-based

| Structure (SMILES) | expression of the 1α (OH)-ase gene (1α (OH)-ase gene; 3- and 7-week-old VDR−/− mice) | expression of the 1α (OH)-ase gene (1α (OH)-ase gene; VDR+/+ and VDR+/− mice) | activation of the CAT reporter gene (GAL4-VDR(DEF); CYP1AD expressed, with ADX and ADR expression vectors) | activation of the CAT reporter gene (GAL4-VDR(DEF); in the absence of ADX or ADR) |
| --- | --- | --- | --- | --- |
| C=C1/C(=C\C=C2/CCC[C@]3(C)[C@@H]([C@H](C)CCCC(C)(C)O)CC[C@@H]23)C[C@@H](O)C[C@@H]1O [1α,25(OH)2D3, 1α,25-Dihydroxyvitamin D3] | the inhibition did not occurred | significantly inhibited |  |  |
| C=C1CC[C@H](O)C/C1=C/C=C1\CCC[C@]2(C)[C@@H]([C@H](C)CCCC(C)(C)O)CC[C@@H]12 [25(OH)D3, 25-hydroxyvitamin D3] |  |  | activated the CAT reporter gene | did not significantly activate the reporter gene |

— patent US20050186617A1, “Gene screening method using nuclear receptor” (Chugai Seiyaku Kabushiki Kaisha, a Japanese corporation, priority 1997, published 2005)
